Laboratory results published in patent US4122034A, “Antimicrobial compositions” (Schering Corporation, priority 1975, dated 1978).
In brackets after ≈: the same amount, converted by molar mass.

What was measured:
Trychomonas vaginalis = assay: In vitro Anti-Trichomonal activity (Table VII); format: cell-based
Protocol: (§1) All the tests were carried out and (when necessary) scored under standard conditions. "MIC" means "minimum inhibitory concentration."
In vitro Anti-Trichomonal Activity of some 2-aminoalkyl-3-
phenyl-indenes of formula II.

T. mentagrophytes = assay: Effect against topical T. mentagrophytes infections in guinea pigs (Table VI); format: in vivo; set-up: Average Sum of lesion scores, Days 1-5 / Average Sum of lesion scores, Days 1-10: scale not given here; details: for Average Sum of lesion scores, Days 1-5: untreated controls 14.8; for Average Sum of lesion scores, Days 1-10: untreated controls 38.2
Protocol: as §1
Effect of some 2-aminoalkyl-3-phenylindoles of the formula II
against topical T. mentagrophytes infections in guinea pigs.

Trichophyton tonsurans = assay: In vitro antifungal activity, dilutions in Sabouraud's Dextrose Broth (Table IV); format: cell-based; details: after 96 hours
Protocol: as §1
(§2) In vitro Antifungal Activity of 2-amioalkyl-3-phenylindoles
(§3) of the formula I against Dermetophytes and Aspergillus.
(§4) Dilutions in Sabouraud's Dextrose Broth.

Epidermophyton floccosum = assay: as above; format: cell-based; details: after 96 hours
Protocol: as §1, §2, §3, §4

Trichophyton ferrugineum = assay: as above; format: cell-based; details: Microsporum ferrugineum; after 96 hours
Protocol: as §1, §2, §3, §4

Trichophyton rubrum = assay: as above; format: cell-based; details: 96 h
Protocol: as §1, §2, §3, §4

[1] = system: Trichophyton schoenleinii; assay: as above; format: cell-based; details: 96 h
Protocol: as §1, §2, §3, §4

Trichophyton gallinae = assay: as above; format: cell-based; details: after 96 hours
Protocol: as §1, §2, §3, §4

Trichophyton megninii = assay: as above; format: cell-based; details: Trichophyton rubrum; after 96 hours
Protocol: as §1, §2, §3, §4

Trichophyton discoides = assay: as above; format: cell-based; details: after 96 hours
Protocol: as §1, §2, §3, §4

[2] = system: Trichophyton mentagrophytes; assay: as above; format: cell-based; details: 96 h
Protocol: as §1, §2, §3, §4

Aspergillus niger 6275 = assay: as above; format: cell-based; details: after 96 hours
Protocol: as §1, §2, §3, §4

Tricoderm sp. = assay: as above; format: cell-based; details: after 96 hours
Protocol: as §1, §2, §3, §4

Microsporum nanum = assay: as above; format: cell-based; details: Nannizzia nana; after 96 hours
Protocol: as §1, §2, §3, §4

Trichophyton soudenense = assay: as above; format: cell-based; details: after 96 hours
Protocol: as §1, §2, §3, §4

Aspergillus sp. No. 3 = assay: as above; format: cell-based; details: after 96 hours
Protocol: as §1, §2, §3, §4

Microsporum distortum = assay: as above; format: cell-based; details: after 96 hours
Protocol: as §1, §2, §3, §4

Trichophyton ascoides = assay: as above; format: cell-based; details: after 96 hours
Protocol: as §1, §2, §3, §4

Clostridium septicum = assay: In vitro activity against anaerobes in fluid Thioglycollate medium (Table II); format: cell-based
Protocol: as §1
(§5) In vitro activity of 2-aminoalkyl-3-phenylindoles of the formula I
(§6) against anaerobes in fluid Thioglycollate medium

Clostridium novyi = assay: as above; format: cell-based
Protocol: as §1, §5, §6

Eubacterium lentum = assay: as above; format: cell-based; details: Eggerthella lenta
Protocol: as §1, §5, §6

Bacteroides corrodens = assay: as above; format: cell-based; details: Eikenella corrodens
Protocol: as §1, §5, §6

[3] = system: Bacteroides melaninogenicus; assay: as above; format: cell-based
Protocol: as §1, §5, §6

Bacteroides fragilis = assay: as above; format: cell-based
Protocol: as §1, §5, §6

Peptostreptococcus = assay: as above; format: cell-based
Protocol: as §1, §5, §6

Clostridium histolyticum = assay: as above; format: cell-based; details: Hathewaya histolytica
Protocol: as §1, §5, §6

Streptococcus pyogenes = assay: In vitro antibacterial activity, dilution in Mueller Hinton Agar (Table I); format: cell-based
Protocol: as §1
(§7) In vitro Antibacterial Activity of 2-aminoalkyl-3-phenyl-
(§8) indoles of the formula I. Dilution in Mueller Hinton Agar pH 7.4

Pseudomonas acruginosa = assay: as above; format: cell-based
Protocol: as §1, §7, §8

Enterococcus = assay: as above; format: cell-based
Protocol: as §1, §7, §8

Staphylococcus aureus = assay: as above; format: cell-based; details: Mueller Hinton Agar pH 7.4
Protocol: as §1, §7, §8

Proteus mirabilis = assay: as above; format: cell-based; details: Mueller Hinton Agar pH 7.4
Protocol: as §1, §7, §8

Proteus vulgaris = assay: as above; format: cell-based; details: strain Napol, Mueller Hinton Agar pH 7.4
Protocol: as §1, §7, §8

Klebsiella = assay: as above; format: cell-based
Protocol: as §1, §7, §8

[4] = Acute toxicity in mice (Table V); details: mouse, in vivo
Protocol: as §1
Acute Toxicity of 2-aminoalkyl-3-phenylindoles of the formula I

In the case of `NCc1[nH]c2cc(Br)c(Cl)cc2c1-c1ccccc1` [D, 2-aminomethyl-6-bromo-5-chloro-3-phenylindole], the IC50 (Trychomonas vaginalis; 50% suppression, read-out: Minimal Level to Produce 50% Suppression) is reported as 20 µg/mL (≈ 59.6 µM), the IC90 (Trychomonas vaginalis; 90% suppression, read-out: Minimal Level to Produce 90% Suppression) is reported as 38 µg/mL (≈ 113 µM) and the “Average No. of Days to become negative, Cultures” value (T. mentagrophytes; concentration 1%) is reported as > 22 days. The “Average No. of Days to become negative, Lesion” value (T. mentagrophytes; concentration 1%) was > 22 days, the “Average Sum of lesion scores, Days 1-5” value (T. mentagrophytes; concentration 1%) was 11.6 and the “Average Sum of lesion scores, Days 1-10” value (T. mentagrophytes; concentration 1%) was 29.2. The “Average No. of Days to become negative, Cultures” value (T. mentagrophytes; concentration 4%) was 6.2 days, the “Average No. of Days to become negative, Lesion” value (T. mentagrophytes; concentration 4%) was 8.8 days and the “Average Sum of lesion scores, Days 1-5” value (T. mentagrophytes; concentration 4%) was 11.8. For the same molecule, the “Average Sum of lesion scores, Days 1-10” value (T. mentagrophytes; concentration 4%) was 14.2, the MIC (Trichophyton tonsurans) was 17.5 µg/mL (≈ 52.1 µM) and the MIC (Epidermophyton floccosum) was 7.5 µg/mL (≈ 22.3 µM). For the same molecule, the MIC (Trichophyton ferrugineum) was 17.5 µg/mL (≈ 52.1 µM), the MIC (Trichophyton rubrum; strain 3, after 96 hours) was 3 µg/mL (≈ 8.94 µM) and the MIC (Trichophyton rubrum; strain 360, after 96 hours) was 3 µg/mL (≈ 8.94 µM). For the same molecule, the MIC (Trichophyton rubrum; strain Blehl, after 96 hours) was 7.5 µg/mL (≈ 22.3 µM), the MIC (Trichophyton rubrum; strain Haggerty, after 96 hours) was 7.5 µg/mL (≈ 22.3 µM) and the MIC ([1]; strain 2, after 96 hours) was 7.5 µg/mL (≈ 22.3 µM). The MIC ([1]; strain not given, after 96 hours) was 7.5 µg/mL (≈ 22.3 µM), the MIC (Trichophyton gallinae) was 75 µg/mL (≈ 223 µM) and the MIC (Trichophyton megninii) was 3 µg/mL (≈ 8.94 µM). It also gave an MIC (Trichophyton discoides) of 7.5 µg/mL (≈ 22.3 µM), an MIC ([2]; strain A, after 96 hours) of 7.5 µg/mL (≈ 22.3 µM) and an MIC ([2]; strain B, after 96 hours) of 3 µg/mL (≈ 8.94 µM). For the same molecule, the MIC ([2]; strain C, after 96 hours) was 3 µg/mL (≈ 8.94 µM), the MIC ([2]; strain H377, after 96 hours) was 7.5 µg/mL (≈ 22.3 µM) and the MIC ([2]; strain Young, after 96 hours) was 7.5 µg/mL (≈ 22.3 µM). It also gave an MIC (Aspergillus niger 6275) of 17.5 µg/mL (≈ 52.1 µM), an MIC (Tricoderm sp.) of 7.5 µg/mL (≈ 22.3 µM) and an MIC (Microsporum nanum) of 3 µg/mL (≈ 8.94 µM). The MIC (Trichophyton soudenense) was 3 µg/mL (≈ 8.94 µM), the MIC (Aspergillus sp. No. 3) was 17.5 µg/mL (≈ 52.1 µM) and the MIC (Microsporum distortum) was 3 µg/mL (≈ 8.94 µM). For the same molecule, the MIC (Trichophyton ascoides) was 7.5 µg/mL (≈ 22.3 µM), the MIC (Clostridium septicum; 48 hrs) was 0.75 µg/mL (≈ 2.23 µM) and the MIC (Clostridium septicum; 72 hrs) was 0.75 µg/mL (≈ 2.23 µM). It also gave an MIC (Clostridium novyi; 48 hrs) of 0.75 µg/mL (≈ 2.23 µM), an MIC (Clostridium novyi; 72 hrs) of 0.75 µg/mL (≈ 2.23 µM) and an MIC (Eubacterium lentum; 48 hrs) of 0.75 µg/mL (≈ 2.23 µM). The MIC (Eubacterium lentum; 72 hrs) was 0.75 µg/mL (≈ 2.23 µM), the MIC (Bacteroides corrodens; 48 hrs) was 0.75 µg/mL (≈ 2.23 µM) and the MIC (Bacteroides corrodens; 72 hrs) was 0.75 µg/mL (≈ 2.23 µM). For the same molecule, the MIC ([3]; 48 hrs) was 3 µg/mL (≈ 8.94 µM), the MIC ([3]; 72 hrs) was 3 µg/mL (≈ 8.94 µM) and the MIC (Bacteroides fragilis; 48 hrs) was 0.75 µg/mL (≈ 2.23 µM). The MIC (Bacteroides fragilis; 72 hrs) was 0.75 µg/mL (≈ 2.23 µM), the MIC (Peptostreptococcus; 48 hrs) was 0.3 µg/mL (≈ 0.894 µM) and the MIC (Peptostreptococcus; 72 hrs) was 0.3 µg/mL (≈ 0.894 µM). The MIC (Clostridium histolyticum; 48 hrs) was 0.3 µg/mL (≈ 0.894 µM), the MIC (Clostridium histolyticum; 72 hrs) was 0.3 µg/mL (≈ 0.894 µM) and the MIC (Streptococcus pyogenes; pH 7.4, strain 27, Mueller Hinton Agar pH 7.4) was 3 µg/mL (≈ 8.94 µM). The MIC (Streptococcus pyogenes; pH 7.4, strain C, Mueller Hinton Agar pH 7.4) was 3 µg/mL (≈ 8.94 µM), the MIC (Streptococcus pyogenes; pH 7.4, strain Cruz, Mueller Hinton Agar pH 7.4) was 3 µg/mL (≈ 8.94 µM) and the MIC (Pseudomonas acruginosa; pH 7.4, strain 130, Mueller Hinton Agar pH 7.4) was 17.5 µg/mL (≈ 52.1 µM). It also gave an MIC (Pseudomonas acruginosa; pH 7.4, strain 138, Mueller Hinton Agar pH 7.4) of 7.5 µg/mL (≈ 22.3 µM), an MIC (Pseudomonas acruginosa; pH 7.4, strain 762, Mueller Hinton Agar pH 7.4) of 17.5 µg/mL (≈ 52.1 µM) and an MIC (Pseudomonas acruginosa; pH 7.4, strain 8709, Mueller Hinton Agar pH 7.4) of 7.5 µg/mL (≈ 22.3 µM). It also gave an MIC (Pseudomonas acruginosa; pH 7.4, strain Trav. 1, Mueller Hinton Agar pH 7.4) of 7.5 µg/mL (≈ 22.3 µM), an MIC (Enterococcus; pH 7.4, strain 373, Mueller Hinton Agar pH 7.4) of 3 µg/mL (≈ 8.94 µM) and an MIC (Enterococcus; pH 7.4, strain 0928/72, Mueller Hinton Agar pH 7.4) of 3 µg/mL (≈ 8.94 µM). For the same molecule, the MIC (Staphylococcus aureus; 209P, pH 7.4, strain 209P) was 3 µg/mL (≈ 8.94 µM), the MIC (Staphylococcus aureus; pH 7.4, strain 59N) was 3 µg/mL (≈ 8.94 µM) and the MIC (Staphylococcus aureus; pH 7.4, strain Gray) was 3 µg/mL (≈ 8.94 µM). It also gave an MIC (Staphylococcus aureus; pH 7.4, strain Wood) of 3 µg/mL (≈ 8.94 µM), an MIC (Staphylococcus aureus; pH 7.4, strain Zeigler) of 3 µg/mL (≈ 8.94 µM) and an MIC (Proteus mirabilis; pH 7.4, strain Hard) of 3 µg/mL (≈ 8.94 µM). It also gave an MIC (Proteus mirabilis; pH 7.4, strain Peras) of 3 µg/mL (≈ 8.94 µM), an MIC (Proteus vulgaris) of 3 µg/mL (≈ 8.94 µM) and an MIC (Klebsiella; pH 7.4, strain 121, Mueller Hinton Agar pH 7.4) of 3 µg/mL (≈ 8.94 µM). The MIC (Klebsiella; pH 7.4, strain 3020, Mueller Hinton Agar pH 7.4) was 3 µg/mL (≈ 8.94 µM), the MIC (Klebsiella; pH 7.4, strain AD17, Mueller Hinton Agar pH 7.4) was 3 µg/mL (≈ 8.94 µM) and the MIC (Klebsiella; pH 7.4, strain AD22, Mueller Hinton Agar pH 7.4) was 3 µg/mL (≈ 8.94 µM). For the same molecule, the MIC (Klebsiella; pH 7.4, strain G3694, Mueller Hinton Agar pH 7.4) was 3 µg/mL (≈ 8.94 µM), the LD50 ([4]; Oral) was ~950 mg/kg and the LD50 ([4]; ip, I.P.) was 175 mg/kg. For the same molecule, the LD50 ([4]; sc, S.C.) was 750 mg/kg.
